# Measurements as given in patent US6737383B1, “Herbicidal oxadiazolidines” (priority 1999, dated 2004).
# Columns and labels:
# bedstraw = experiment: Test B pre/postemergence bedstraw; assay type: in vivo, Galium aparine
# Summary of the method: (§1)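 Herbicidal effect was estimated by eye on a ten-point control scale after plants spent twelve to sixteen days in a greenhouse following soil or foliar treatment. Foliar sprays targeted plants at one to four leaves; all doses were formulated in a non-phytotoxic solvent with surfactant.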
# duck salad = experiment: Test B flood test duck salad; assay type: in vivo, Heteranthera limosa
# Summary of the method: (§2)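 Plants were grown to the 2-leaf stage before treatment with test chemical, then held in a greenhouse for twelve to sixteen days. Injury was visually rated against untreated controls on a 0–10 scale, where 0 is no effect and 10 is complete control.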
# crabgrass = experiment: Test B pre/postemergence crabgrass; assay type: in vivo, Digitaria sanguinalis
# Summary of the method: as §1
# cocklebur = experiment: Test B pre/postemergence cocklebur; assay type: in vivo, Xanthium strumarium
# Summary of the method: as §1
# soybean = experiment: Test B pre/postemergence soybean; assay type: in vivo, Glycine max
# Summary of the method: as §1
# corn = experiment: Test B pre/postemergence corn; assay type: in vivo, Zea mays
# Summary of the method: as §1
# sugar beet = experiment: Test B pre/postemergence sugar beet; assay type: in vivo, Beta vulgaris
# Summary of the method: as §1
# giant foxtail = experiment: Test B pre/postemergence giant foxtail; assay type: in vivo, Setaria faberii
# Summary of the method: as §1
# purple nutsedge = experiment: Test B pre/postemergence purple nutsedge; assay type: in vivo, Cyperus rotundus
# Summary of the method: as §1
# morningglory = experiment: Test B pre/postemergence morningglory; assay type: in vivo, Ipomoea hederacea
# Summary of the method: as §1
# pigweed = experiment: Test B pre/postemergence pigweed; assay type: in vivo, Amaranthus retroflexus
# Summary of the method: as §1
# smallflower flatsedge = experiment: Test B flood test smallflower flatsedge; assay type: in vivo, Cyperus difformis
# Summary of the method: as §2
# surinam grass = experiment: Test B pre/postemergence surinam grass; assay type: in vivo, Brachiaria decumbens
# Summary of the method: as §1
# blackgrass = experiment: Test B pre/postemergence blackgrass; assay type: in vivo, Alopecurus myosuroides
# Summary of the method: as §1
# wild oat = experiment: Test B pre/postemergence wild oat; assay type: in vivo, Avena fatua
# Summary of the method: as §1
# bamyardgrass = experiment: Test B flood test barnyardgrass; assay type: in vivo, Echinochloa crus-galli
# Summary of the method: as §2
# velvetleaf = experiment: Test B pre/postemergence velvetleaf; assay type: in vivo, Abutilon theophrasti
# Summary of the method: as §1
# wheat = experiment: Test B pre/postemergence wheat; assay type: in vivo, Triticum aestivum
# Summary of the method: as §1
# rape = experiment: Test B pre/postemergence rape; assay type: in vivo, Brassica napus
# Summary of the method: as §1
# rice = experiment: Test B flood test rice; assay type: in vivo, Oryza sativa
# Summary of the method: as §2
# [1] = Postemergence, Rate 62 g/ha, scale 0 to 10, 0 is no effect, 10 is complete control
# [2] = Preemergence, Rate 62 g/ha, scale 0 to 10 (0 no effect, 10 complete control)
# [3] = Preemergence, Rate 125 g/ha, scale of 0 to 10 where 0 is no effect and 10 is complete control
# [4] = Preemergence, Rate 500 g/ha, scale of 0 to 10 where 0 is no effect and 10 is complete control
# [5] = Rate 62 g/ha, flood test species, Pre-emergence, visual evaluation after twelve to sixteen days
# [6] = Rate 125 g/ha, under heading Pre-emergence, flood test species, visual evaluation after twelve to sixteen days
# [7] = Rate 250 g/ha, Pre-emergence (flood test species), scale 0 to 10, 0 is no effect, 10 is complete control
# [8] = Rate 500 g/ha, Pre-emergence section of Table B, 0 to 10 scale (0 no effect, 10 complete control)
# [9] = Postemergence, Rate 125 g/ha, scale of 0 to 10 where 0 is no effect and 10 is complete control
# [10] = Postemergence, Rate 250 g/ha, scale of 0 to 10, 0 is no effect, 10 is complete control
# [11] = Postemergence, Rate 500 g/ha, scale of 0 to 10 where 0 is no effect and 10 is complete control
structure (smiles),measurement,setting,value
C=C(Cn1c(=O)on(C(=O)N(c2ccccc2)C(C)C)c1=O)c1cccc(Cl)n1 [Compound 605],"Plant response rating, Bedstraw",bedstraw; [1],0
same,Bedstraw plant response rating,bedstraw; [2],0
same,Bedstraw plant response rating,bedstraw; [3],0
same,Bedstraw plant response rating (0 to 10 scale),"bedstraw; Preemergence, Rate 250 g/ha",0
same,Bedstraw plant response rating,bedstraw; [4],0
same,"Plant response rating, Ducksalad (0 to 10 scale, 0 is no effect, 10 is complete control)",duck salad; [5],0
same,"Ducksalad plant response rating (0 to 10 scale, 0 is no effect, 10 is complete control)",duck salad; [6],0
same,Ducksalad plant response rating,duck salad; [7],0
same,Ducksalad plant response rating,duck salad; [8],0
same,"Plant response rating, Crabgrass",crabgrass; [1],0
same,"Plant response rating, Crabgrass",crabgrass; [9],0
same,Crabgrass plant response rating,crabgrass; [10],1
same,"Plant response rating, Crabgrass",crabgrass; [11],3
same,Crabgrass plant response rating,crabgrass; [2],0
same,Crabgrass plant response rating,crabgrass; [3],3
same,"Plant response rating, Crabgrass",crabgrass; [4],10
same,"Plant response rating, Cocklebur",cocklebur; [1],0
same,"Plant response rating, Cocklebur",cocklebur; [9],0
same,Cocklebur plant response rating,cocklebur; [10],0
same,"Plant response rating, Cocklebur",cocklebur; [11],0
same,Cocklebur plant response rating,cocklebur; [2],0
same,Cocklebur plant response rating,cocklebur; [3],0
same,Cocklebur plant response rating (0 to 10 scale),"cocklebur; Preemergence, Rate 250 g/ha",0
same,"Plant response rating, Cocklebur",cocklebur; [4],0
same,"Plant response rating, Soybean",soybean; [1],2
same,"Plant response rating, Soybean",soybean; [9],2
same,Soybean plant response rating,soybean; [10],3
same,"Plant response rating, Soybean",soybean; [11],5
same,Soybean plant response rating,soybean; [2],0
same,Soybean plant response rating,soybean; [3],0
same,"Plant response rating, Soybean",soybean; [4],0
same,"Plant response rating, Corn",corn; [1],0
same,"Plant response rating, Corn",corn; [9],0
same,Corn plant response rating,corn; [10],0
same,"Plant response rating, Corn",corn; [11],0
same,Corn plant response rating,corn; [2],0
same,Corn plant response rating,corn; [3],0
same,Corn plant response rating (0 to 10 scale),"corn; Preemergence, Rate 250 g/ha",0
same,"Plant response rating, Corn",corn; [4],0
same,"Plant response rating, Sugarbeets",sugar beet; [1],0
same,"Plant response rating, Sugarbeets",sugar beet; [9],0
same,Sugarbeets plant response rating,sugar beet; [10],0
same,"Plant response rating, Sugarbeets",sugar beet; [11],0
same,Sugarbeets plant response rating,sugar beet; [2],0
same,Sugarbeets plant response rating,sugar beet; [3],0
same,"Plant response rating, Sugarbeets",sugar beet; [4],0
same,"Plant response rating, Giant foxtail",giant foxtail; [1],0
same,"Plant response rating, Giant foxtail",giant foxtail; [9],0
same,Giant foxtail plant response rating,giant foxtail; [10],0
same,"Plant response rating, Giant foxtail",giant foxtail; [11],2
same,Giant foxtail plant response rating,giant foxtail; [2],2
same,Giant foxtail plant response rating,giant foxtail; [3],10
same,"Plant response rating, Giant foxtail",giant foxtail; [4],10
same,"Plant response rating, Nutsedge",purple nutsedge; [1],0
same,"Plant response rating, Nutsedge",purple nutsedge; [9],0
same,Nutsedge plant response rating,purple nutsedge; [10],0
same,"Plant response rating, Nutsedge",purple nutsedge; [11],0
same,Nutsedge plant response rating,purple nutsedge; [2],0
same,Nutsedge plant response rating,purple nutsedge; [3],0
same,"Plant response rating, Nutsedge",purple nutsedge; [4],0
same,"Plant response rating, Morningglory",morningglory; [9],6
same,Morningglory plant response rating,morningglory; [10],9
same,"Plant response rating, Morningglory",morningglory; [11],10
same,Morningglory plant response rating,morningglory; [2],0
same,Morningglory plant response rating,morningglory; [3],0
same,"Plant response rating, Redroot pigweed",pigweed; [1],0
same,"Plant response rating, Redroot pigweed",pigweed; [9],0
same,Redroot pigweed plant response rating,pigweed; [10],0
same,"Plant response rating, Redroot pigweed",pigweed; [11],0
same,Redroot pigweed plant response rating,pigweed; [2],0
same,Redroot pigweed plant response rating,pigweed; [3],0
same,"Plant response rating, Redroot pigweed",pigweed; [4],0
same,"Plant response rating, S. Flatsedge (0 to 10 scale, 0 is no effect, 10 is complete control)",smallflower flatsedge; [5],0
same,"S. Flatsedge plant response rating (0 to 10 scale, 0 is no effect, 10 is complete control)",smallflower flatsedge; [6],0
same,S. Flatsedge plant response rating,smallflower flatsedge; [7],0
same,S. Flatsedge plant response rating,smallflower flatsedge; [8],0
same,"Plant response rating, B. signalgrass",surinam grass; [1],0
same,"Plant response rating, B. signalgrass",surinam grass; [9],0
same,B. signalgrass plant response rating,surinam grass; [10],0
same,"Plant response rating, B. signalgrass",surinam grass; [11],0
same,B. signalgrass plant response rating,surinam grass; [2],0
same,B. signalgrass plant response rating,surinam grass; [3],0
same,"B. signalgrass plant response rating (0 to 10 scale, 0 is no effect, 10 is complete control)","surinam grass; Preemergence, Rate 250 g/ha",0
same,B. signalgrass plant response rating,surinam grass; [4],0
same,"Plant response rating, Blackgrass",blackgrass; [1],0
same,"Plant response rating, Blackgrass",blackgrass; [9],0
same,Blackgrass plant response rating,blackgrass; [10],0
same,"Plant response rating, Blackgrass",blackgrass; [11],0
same,Blackgrass plant response rating,blackgrass; [2],0
same,Blackgrass plant response rating,blackgrass; [3],0
same,Blackgrass plant response rating (0 to 10 scale),"blackgrass; Preemergence, Rate 250 g/ha",0
same,Blackgrass plant response rating,blackgrass; [4],0
same,"Plant response rating, Wild oats",wild oat; [1],2
same,"Plant response rating, Wild oats",wild oat; [9],1
same,Wild oats plant response rating,wild oat; [10],1
same,"Plant response rating, Wild oats",wild oat; [11],2
same,Wild oats plant response rating,wild oat; [2],0
same,Wild oats plant response rating,wild oat; [3],0
same,"Plant response rating, Wild oats",wild oat; [4],0
same,"Plant response rating, Barnyardgrass (0 to 10 scale, 0 is no effect, 10 is complete control)",bamyardgrass; [5],0
same,"Barnyardgrass plant response rating (0 to 10 scale, 0 is no effect, 10 is complete control)",bamyardgrass; [6],0
same,Barnyardgrass plant response rating,bamyardgrass; [7],0
same,Barnyardgrass plant response rating,bamyardgrass; [8],0
same,"Plant response rating, Velvetleaf",velvetleaf; [1],0
same,"Plant response rating, Velvetleaf",velvetleaf; [9],0
same,Velvetleaf plant response rating,velvetleaf; [10],0
same,"Plant response rating, Velvetleaf",velvetleaf; [11],0
same,Velvetleaf plant response rating,velvetleaf; [2],0
same,Velvetleaf plant response rating,velvetleaf; [3],0
same,"Plant response rating, Velvetleaf",velvetleaf; [4],0
same,"Plant response rating, Wheat",wheat; [1],1
same,"Plant response rating, Wheat",wheat; [9],1
same,Wheat plant response rating,wheat; [10],1
same,"Plant response rating, Wheat",wheat; [11],2
same,Wheat plant response rating,wheat; [2],0
same,Wheat plant response rating,wheat; [3],0
same,"Plant response rating, Wheat",wheat; [4],0
same,"Plant response rating, Rape",rape; [1],0
same,"Plant response rating, Rape",rape; [9],0
same,Rape plant response rating,rape; [10],0
same,"Plant response rating, Rape",rape; [11],0
same,Rape plant response rating,rape; [2],0
same,Rape plant response rating,rape; [3],0
same,"Plant response rating, Rape",rape; [4],0
same,"Plant response rating, Rice (0 to 10 scale, 0 is no effect, 10 is complete control)",rice; [5],0
same,"Rice plant response rating (0 to 10 scale, 0 is no effect, 10 is complete control)",rice; [6],0
same,Rice plant response rating,rice; [7],0
same,Rice plant response rating,rice; [8],0
